Source: patent US20260325685A1, “Radiopharmaceutical Compositions Targeting Carbonic Anhydrase IX and Uses Thereof” (RayzeBio, Inc., priority 2023, published 2026)
Where two headings read alike, the source gives them in different places.

Key:
[1] = biological target: T1, human CA-IX (Homo sapiens, UniProt Q16790); test: Surface Plasmon Resonance (SPR) binding kinetics to recombinant human CA-IX (Biacore 8K, single-cycle kinetics, 1:1 binding model)
T1 construct: purchased Acro CA9-H82E3
Experimental: (§1) G1. Surface Plasmon Resonance Assay Conditions for hCA-IX and hCA-XII
(§2) Surface Plasmon Resonance (SPR) experiments were conducted on a Biacore 8K instrument (Cytiva, Marlborough, MA) to determine the binding kinetics of the compound to recombinant human CA-IX (Acro, CA9-H82E3) and CA-XII (Creative BioMart, CA12-261H) proteins. The ligands were diluted to 10 μg/mL in PBS-P+ buffer (20 mM phosphate buffer, pH 7.4, with 2.7 mM KCl, 137 mM NaCl, and 0.05% Tween 20) and captured on Series S Streptavidin Sensor Chips (Cytiva, 29699621) to 1200-1800 response units (RU) using a flow rate of 5 μL/min and injection times of 180 seconds for human CA-IX and 75 seconds for human CA-XII. Analyte binding was evaluated using a single-cycle kinetics method over 9 analyte concentrations (100-0.39 nM) in PBS-P+ buffer with 1% DMSO using a 50 μL/min. flow rate, 120 second association time, and 1200 second dissociation time. The flow cell temperature was set to 25° C. Analyte binding curves were fit to a 1:1 binding kinetic model in Biacore Insight Evaluation software (version 4.0.8.20368) following reference flow cell subtraction and DMSO correction to derive the association and dissociation binding constants.

[2] = biological target: T2, human CA-XII (Homo sapiens, UniProt O43570); test: Surface Plasmon Resonance (SPR) binding kinetics to recombinant human CA-XII (Biacore 8K, single-cycle kinetics, 1:1 binding model)
T2 construct: purchased Creative BioMart CA12-261H
Experimental: as §1, §2

[3] = Chelated Metal: Lu-175; SPR, 25° C., pH 7.4; read-out: CAIX KD
[4] = Chelated Metal: Lu-175, 25° C., pH 7.4, read-out: CAXII KD
[5] = Chelated Metal: None; SPR, 25° C., pH 7.4; read-out: CAIX KD
[6] = KD ratio CAXII/CAIX; Chelated Metal: None
[7] = Chelated Metal: None, 25° C., pH 7.4, read-out: CAXII KD

T2 sequence (O43570 25-354): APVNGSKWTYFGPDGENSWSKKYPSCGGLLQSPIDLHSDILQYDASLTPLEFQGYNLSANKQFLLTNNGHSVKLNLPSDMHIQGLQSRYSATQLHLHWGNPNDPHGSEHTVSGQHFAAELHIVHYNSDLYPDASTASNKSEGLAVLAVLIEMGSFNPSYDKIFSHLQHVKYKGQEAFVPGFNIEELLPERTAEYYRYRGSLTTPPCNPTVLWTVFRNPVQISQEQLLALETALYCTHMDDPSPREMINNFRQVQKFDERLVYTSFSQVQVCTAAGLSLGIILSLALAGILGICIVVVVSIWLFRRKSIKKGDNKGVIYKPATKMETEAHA

Row | Compound | Kd [1, 3] [nM] | Kd [2, 4] [nM] | other results
1 | CC(CCCC(=O)N1CCOC[C@H]1C(=O)N[C@@H](CC(=O)N1CCN(C(=O)CN2CCN(CC(=O)O)CCN(CC(=O)O)CCN(CC(=O)O)CC2)C[C@@H]1C(=O)NCCn1cc(C23CC(C(=O)Nc4nnc(S(N)(=O)=O)s4)(C2)C3)nn1)C(N)=O)(c1ccc(O)cc1)c1ccc(O)cc1.[Lu+3] [Compound 107.44] | < 1 | > 10 | 
2 | CC(CCC(=O)N[C@@H](CC(=O)N[C@@H](CC(=O)N1CCN(C(=O)CN2CCN(CC(=O)O)CCN(CC(=O)O)CCN(CC(=O)O)CC2)C[C@H]1C(=O)NCCn1cc(-c2ccc(C(=O)Nc3nnc(S(N)(=O)=O)s3)cc2Cl)nn1)C(=O)O)C(=O)O)(c1ccc(O)cc1)c1ccc(O)cc1.[Lu+3] [Compound 107.36] | < 1 | > 10 | 
3 | CC(CCC(=O)N1CCOC[C@@H]1C(=O)N[C@@H](CC(=O)N1CCN(C(=O)CN2CCN(CC(=O)O)CCN(CC(=O)O)CCN(CC(=O)O)CC2)C[C@@H]1C(=O)NCCn1cc(C23CC(C(=O)Nc4nnc(S(N)(=O)=O)s4)(C2)C3)nn1)C(=O)O)(c1ccc(O)cc1)c1ccc(O)cc1.[Lu+3] [Compound 108.4] | 1 to 2.5 | > 10 | 
4 | CC(CCC(=O)N[C@@H](CC(=O)N[C@@H](CC(=O)N[C@@H](CCCCN1CCN(c2ccc(C(=O)Nc3nnc(S(N)(=O)=O)s3)cc2)CC1)C(=O)NCCOCCOCCNC(=O)CN1CCN(CC(=O)O)CCN(CC(=O)O)CCN(CC(=O)O)CC1)C(=O)O)C(=O)O)(c1ccc(O)cc1)c1ccc(O)cc1.[Lu+3] [Compound 121.1] | 1 to 2.5 | > 10 | 
5 | CC(C)c1ccc(C(=O)N[C@@H](CC(=O)N[C@@H](CC(=O)N2CCN(C(=O)CN3CCN(CC(=O)O)CCN(CC(=O)O)CCN(CC(=O)O)CC3)C[C@H]2C(=O)NCCn2cc(C34CC(C(=O)Nc5nnc(S(N)(=O)=O)s5)(C3)C4)nn2)C(=O)O)C(=O)O)cc1.[Lu+3] [Compound 109.39] | 1 to 2.5 | 2.5 to 10 | 
6 | NS(=O)(=O)c1nnc(NC(=O)C23CCC(c4cn(CCNC(=O)[C@@H]5CN(C(=O)CCCc6ccc(O)cc6)CCN5C(=O)CC[C@H](NC(=O)C[C@H](NC(=O)CN5CCN(CC(=O)O)CCN(CC(=O)O)CCN(CC(=O)O)CC5)C(=O)O)C(=O)O)nn4)(CC2)CC3)s1.[Lu+3] [Compound 132] |  |  | Kd ([1]; read-out: CAIX KD; Chelated Metal: Lu-175; SPR, 25° C., pH 7.4): < 1 nM; Kd ([2]; read-out: CAXII KD, Chelated Metal: Lu-175, 25° C., pH 7.4): 1 to 2.5 nM
7 | CC(CCCC(=O)N1CCOC[C@H]1C(=O)N[C@@H](CC(=O)N1CCN(C(=O)CN2CCN(CC(=O)O)CCN(CC(=O)O)CCN(CC(=O)O)CC2)C[C@H]1C(=O)NCCn1cc(C23CC(c4cn5nc(S(N)(=O)=O)sc5n4)(C2)C3)nn1)C(=O)O)(c1ccc(O)cc1)c1ccc(O)cc1.[Lu+3] [Compound 107.48] | < 1 | 1 to 2.5 | 
8 | CC(CCC(=O)N[C@@H](CC(=O)N[C@@H](CC(=O)N[C@@H](CCCCn1cc(C23CCC(C(=O)Nc4nnc(S(N)(=O)=O)s4)(CC2)C3)nn1)C(=O)NCCOCCOCCNC(=O)CN1CCN(CC(=O)O)CCN(CC(=O)O)CCN(CC(=O)O)CC1)C(=O)O)C(=O)O)(c1ccc(O)cc1)c1ccc(O)cc1.[Lu+3] [Compound 100.1] | < 1 | 1 to 2.5 | 
9 | CC(CCCC(=O)N1CCC(C(=O)O)(C(=O)NCC(=O)N2CCN(C(=O)CN3CCN(CC(=O)O)CCN(CC(=O)O)CCN(CC(=O)O)CC3)C[C@@H]2C(=O)NCCn2cc(C34CC(C(=O)Nc5nnc(S(N)(=O)=O)s5)(C3)C4)nn2)CC1)(c1ccc(O)cc1)c1ccc(O)cc1.[Lu+3] [Compound 107.6] | < 1 | > 10 | 
10 | CC(CCC(=O)N[C@@H](CC(=O)N[C@@H](CC(=O)N1CCN(C(=O)CCOCCOCCOCCOCCN(CCOCCOCCOCCOCCC(=O)N2CCN(C(=O)C[C@H](NC(=O)C[C@H](NC(=O)CCC(C)(c3ccc(O)cc3)c3ccc(O)cc3)C(=O)O)C(=O)O)[C@H](C(=O)NCCn3cc(C45CC(C(=O)Nc6nnc(S(N)(=O)=O)s6)(C4)C5)nn3)C2)C(=O)CN2CCN(CC(=O)O)CCN(CC(=O)O)CCN(CC(=O)O)CC2)C[C@H]1C(=O)NCCn1cc(C23CC(C(=O)Nc4nnc(S(N)(=O)=O)s4)(C2)C3)nn1)C(=O)O)C(=O)O)(c1ccc(O)cc1)c1ccc(O)cc1 [Compound 131.1] |  |  | Kd [1, 5]: < 1 nM; Ratio (CAXII/CAIX) [1, 6]: * (1 < * < 5); Kd [2, 7]: < 1 nM
11 | NS(=O)(=O)c1nnc(NC(=O)C23CC(c4cn(CCNC(=O)[C@@H]5CN(C(=O)CN6CCN(CC(=O)O)CCN(CC(=O)O)CCN(CC(=O)O)CC6)CCN5C(=O)C[C@H](NC(=O)C[C@H](NCc5ccc(C6CC6)cc5)C(=O)O)C(=O)O)nn4)(C2)C3)s1.[Lu+3] [Compound 109.21] | < 1 | > 10 | 
12 | NS(=O)(=O)c1nnc(NC(=O)C23CC(c4cn(CCNC(=O)[C@@H]5CN(C(=O)CN6CCN(CC(=O)O)CCN(CC(=O)O)CC6)CCN5C(=O)C[C@H](NC(=O)C[C@H](NC(=O)c5ccc(C6CC6)cn5)C(=O)O)C(=O)O)nn4)(C2)C3)s1.[Cu+2] [Compound 126.2] |  |  | Kd ([1]; Chelated Metal: Cu (cold); SPR, 25° C., pH 7.4; read-out: CAIX KD): < 1 nM; Kd ([2]; Chelated Metal: Cu (cold), 25° C., pH 7.4, read-out: CAXII KD): 2.5 to 10 nM
13 | NS(=O)(=O)c1nnc(NC(=O)C23CC(c4cn(CCNC(=O)[C@H]5CN(C(=O)CN6CCN(CC(=O)O)CCN(CC(=O)O)CCN(CC(=O)O)CC6)CCN5C(=O)CC[C@H](NC(=O)c5n[nH]c6ccccc56)C(=O)O)nn4)(C2)C3)s1.[Lu+3] [Compound 107.17] | < 1 | 1 to 2.5 | 
14 | NS(=O)(=O)c1nnc(NC(=O)C23CCC(c4cn(CCNC(=O)[C@@H]5CN(C(=O)CN6CCN(CC(=O)O)CCN(CC(=O)O)CCN(CC(=O)O)CC6)CCN5C(=O)CC[C@H](NC(=O)C[C@H](NC(=O)CCCc5ccc(O)cc5)C(=O)O)C(=O)O)nn4)(CC2)CC3)s1.[Lu+3] [Compound 109.42] | < 1 | < 1 | 
15 | NS(=O)(=O)c1nnc(NC(=O)C23CC(c4cn(CCNC(=O)[C@@H]5CN(C(=O)CN6CCN(CC(=O)O)CCN(CC(=O)O)CCN(CC(=O)O)CC6)CCN5C(=O)C[C@H](NC(=O)C[C@H](NC(=O)c5ccc(C6CC6)nn5)C(=O)O)C(=O)O)nn4)(C2)C3)s1.[Lu+3] [Compound 109.4] | < 1 | 2.5 to 10 | 
16 | CC(CCCC(=O)N[C@@H](CC(=O)N[C@@H](CC(=O)N1CCN(C(=O)CN2CCN(CC(=O)O)CCN(CC(=O)O)CCN(CC(=O)O)CC2)C[C@H]1C(=O)NCCn1cc(C23CC(C(=O)Nc4nnc(S(N)(=O)=O)s4)(C2)C3)nn1)C(=O)O)C(=O)O)(c1ccc(O)cc1)c1ccc(O)cc1 [Compound 109.62] |  |  | Kd [1, 5]: < 1 nM; Ratio (CAXII/CAIX) [1, 6]: *** (10 < *** ≤ 50); Kd [2, 7]: > 10 nM
17 | CC(CCCC(=O)N1CCC(C(N)=O)(C(=O)NCC(=O)N2CCN(C(=O)CCOCCOCCOCCOCCOCCOCCOCCOCCNC(=O)CN3CCN(CC(=O)O)CCN(CC(=O)O)CCN(CC(=O)O)CC3)C[C@H]2C(=O)NCCn2cc(C34CC(C(=O)Nc5nnc(S(N)(=O)=O)s5)(C3)C4)nn2)CC1)(c1ccc(O)cc1)c1ccc(O)cc1.[Lu+3] [Compound 129.1] | < 1 | > 10 | 
18 | CNC(=O)C1(C(=O)NCC(=O)N2CCN(C(=O)CN3CCN(CC(=O)O)CCN(CC(=O)O)CCN(CC(=O)O)CC3)C[C@@H]2C(=O)NCCn2cc(C34CC(C(=O)Nc5nnc(S(N)(=O)=O)s5)(C3)C4)nn2)CCN(C(=O)CCCC(C)(c2ccc(O)cc2)c2ccc(O)cc2)CC1.[Lu+3] [Compound 107.34] | < 1 | > 10 | 
19 | CC(CCC(=O)N[C@@H](CC(=O)N[C@@H](CCC(=O)N1CCN(C(=O)CN2CCN(CC(=O)O)CCN(CC(=O)O)CCN(CC(=O)O)CC2)C[C@@H]1C(=O)NCCn1cc(C23CC(C(=O)Nc4nnc(S(N)(=O)=O)s4)(C2)C3)nn1)C(=O)O)C(=O)O)(c1ccc(O)cc1)c1ccc(O)cc1.[Lu+3] [Compound 107.13] | 1 to 2.5 | > 10 | 
20 | CC(CCC(=O)N[C@@H](CC(=O)N[C@@H](CC(=O)N[C@@H](CCCCn1cc(C23CCC(C(=O)Nc4nnc(S(N)(=O)=O)s4)(CC2)C3)nn1)C(=O)N1CC(NC(=O)CN2CCN(CC(=O)O)CCN(CC(=O)O)CCN(CC(=O)O)CC2)C1)C(=O)O)C(=O)O)(c1ccc(O)cc1)c1ccc(O)cc1.[Lu+3] [Compound 100.11] | < 1 | < 1 | 
21 | CC(CC(=O)N1CCC(C(=O)O)(C(=O)NCC(=O)N[C@@H](CCCCn2cc(CCCC(=O)Nc3nnc(S(N)(=O)=O)s3)nn2)C(=O)NCCOCCOCCNC(=O)CN2CCN(CC(=O)O)CCN(CC(=O)O)CCN(CC(=O)O)CC2)CC1)(c1ccc(O)cc1)c1ccc(O)cc1.[Lu+3] [Compound 102.4] | < 1 | 2.5 to 10 | 
22 | CC(CCCC(=O)N1CCOC[C@H]1C(=O)N[C@@H](CC(=O)N1CCN(C(=O)CCOCCOCCOCCOCCN(CCOCCOCCOCCOCCC(=O)N2CCN(C(=O)C[C@H](NC(=O)[C@@H]3COCCN3C(=O)CCCC(C)(c3ccc(O)cc3)c3ccc(O)cc3)C(N)=O)[C@@H](C(=O)NCCn3cc(C45CC(C(=O)Nc6nnc(S(N)(=O)=O)s6)(C4)C5)nn3)C2)C(=O)CNC(=O)CN2CCN(CC(=O)O)CCN(CC(=O)O)CCN(CC(=O)O)CC2)C[C@@H]1C(=O)NCCn1cc(C23CC(C(=O)Nc4nnc(S(N)(=O)=O)s4)(C2)C3)nn1)C(N)=O)(c1ccc(O)cc1)c1ccc(O)cc1.[Lu+3] [Compound 131.6] | < 1 | 1 to 2.5 | 
